Source: ChEMBL document CHEMBL1909046, “DrugMatrix in vitro pharmacology data”

Experiments:
[1] = DRUGMATRIX: Atrial Natriuretic Factor (ANF) radioligand binding (ligand: [125I] ANF (rat)); format: cell membranes, Cavia porcellus, Dunkin-Hartley, Adrenal gland, Membrane; conditions: Not Active = under 50% inhibition at 10 µM
[2] = molecular target: T1, 5-hydroxytryptamine receptor 2C (Homo sapiens, UniProt P28335); test: DRUGMATRIX: Serotonin (5-Hydroxytryptamine) 5-HT2C radioligand binding (ligand: [3H] Mesulergine); format: cell membranes, CHO-K1, Membrane; conditions: cho-k1; Not Active = under 50% inhibition at 10 µM
T1 sequence (P28335 whole entry): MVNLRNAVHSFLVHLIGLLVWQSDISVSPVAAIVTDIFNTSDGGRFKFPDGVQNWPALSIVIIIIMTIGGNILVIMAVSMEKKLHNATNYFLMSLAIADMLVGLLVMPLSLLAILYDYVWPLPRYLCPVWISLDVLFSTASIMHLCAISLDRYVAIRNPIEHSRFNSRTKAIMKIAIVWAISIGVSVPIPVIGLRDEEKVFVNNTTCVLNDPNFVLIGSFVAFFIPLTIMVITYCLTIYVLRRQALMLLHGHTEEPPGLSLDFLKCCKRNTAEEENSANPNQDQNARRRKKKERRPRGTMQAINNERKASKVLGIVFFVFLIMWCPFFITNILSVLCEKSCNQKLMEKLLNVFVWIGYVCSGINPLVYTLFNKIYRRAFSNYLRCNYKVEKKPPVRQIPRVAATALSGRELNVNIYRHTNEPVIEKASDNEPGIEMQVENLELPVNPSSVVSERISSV

[3] = molecular target: C-C chemokine receptor type 2 (Homo sapiens, UniProt P41597); format: cell membranes, CHO-K1, Membrane; conditions: cho-k1; further: in other assays of this panel Not Active means under 50% inhibition at 10 µM
C-C chemokine receptor type 2, sequence (P41597 whole entry): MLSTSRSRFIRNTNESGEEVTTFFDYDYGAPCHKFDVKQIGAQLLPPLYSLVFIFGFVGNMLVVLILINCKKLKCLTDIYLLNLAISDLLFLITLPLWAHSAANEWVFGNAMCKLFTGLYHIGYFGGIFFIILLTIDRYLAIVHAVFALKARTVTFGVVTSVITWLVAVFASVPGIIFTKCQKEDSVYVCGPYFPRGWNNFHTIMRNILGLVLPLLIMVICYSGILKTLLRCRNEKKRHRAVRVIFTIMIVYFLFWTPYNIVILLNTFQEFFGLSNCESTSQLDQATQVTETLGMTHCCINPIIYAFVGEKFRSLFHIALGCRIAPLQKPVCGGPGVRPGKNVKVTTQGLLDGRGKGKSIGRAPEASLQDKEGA

Glycine receptor = Glycine receptor (Rattus norvegicus, UniProt P22771+P24524+P07727+P20781); format: cell membranes, Wistar, Spinal cord, Membrane; further: in other assays of this panel Not Active means under 50% inhibition at 10 µM
[4] = molecular target: Kappa-type opioid receptor (Homo sapiens, UniProt P41145); test: DRUGMATRIX: Opiate kappa (OP2, KOP) radioligand binding (ligand: [3H] Diprenorphine); format: cell membranes, HEK293, Membrane; conditions: hek293; Not Active = under 50% inhibition at 10 µM
Kappa-type opioid receptor, sequence (P41145 whole entry): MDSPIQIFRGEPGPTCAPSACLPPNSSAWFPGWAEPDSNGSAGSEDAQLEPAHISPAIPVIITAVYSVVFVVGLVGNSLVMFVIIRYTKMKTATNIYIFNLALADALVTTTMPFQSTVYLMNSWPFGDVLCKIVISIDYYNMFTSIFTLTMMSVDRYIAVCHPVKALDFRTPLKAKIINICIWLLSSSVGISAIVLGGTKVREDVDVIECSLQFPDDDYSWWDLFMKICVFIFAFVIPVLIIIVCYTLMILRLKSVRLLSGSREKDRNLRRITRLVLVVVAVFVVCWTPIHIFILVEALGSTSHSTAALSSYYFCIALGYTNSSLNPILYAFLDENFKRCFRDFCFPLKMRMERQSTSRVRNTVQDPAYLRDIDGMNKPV

[5] = DRUGMATRIX: Platelet-Derived Growth Factor (PDGF) radioligand binding (ligand: [125I] PDGF); format: cell-based; conditions: nih3t3; Not Active = under 50% inhibition at 10 µM
[6] = molecular target: Protein kinase C alpha type (Homo sapiens, UniProt P17252); format: cell-based; conditions: sf9;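 further: inhibition of PKCalpha kinase activity measured in an enzyme assay with histone as the phosphorylation substrate; in other assays of this panel Not Active means under 50% inhibition at 10 µM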
[7] = molecular target: Voltage-gated inwardly rectifying potassium channel KCNH2 (Homo sapiens, UniProt Q12809); conditions: hek293; further: in other assays of this panel Not Active means under 50% inhibition at 10 µM
Voltage-gated inwardly rectifying potassium channel KCNH2, sequence (Q12809 whole entry): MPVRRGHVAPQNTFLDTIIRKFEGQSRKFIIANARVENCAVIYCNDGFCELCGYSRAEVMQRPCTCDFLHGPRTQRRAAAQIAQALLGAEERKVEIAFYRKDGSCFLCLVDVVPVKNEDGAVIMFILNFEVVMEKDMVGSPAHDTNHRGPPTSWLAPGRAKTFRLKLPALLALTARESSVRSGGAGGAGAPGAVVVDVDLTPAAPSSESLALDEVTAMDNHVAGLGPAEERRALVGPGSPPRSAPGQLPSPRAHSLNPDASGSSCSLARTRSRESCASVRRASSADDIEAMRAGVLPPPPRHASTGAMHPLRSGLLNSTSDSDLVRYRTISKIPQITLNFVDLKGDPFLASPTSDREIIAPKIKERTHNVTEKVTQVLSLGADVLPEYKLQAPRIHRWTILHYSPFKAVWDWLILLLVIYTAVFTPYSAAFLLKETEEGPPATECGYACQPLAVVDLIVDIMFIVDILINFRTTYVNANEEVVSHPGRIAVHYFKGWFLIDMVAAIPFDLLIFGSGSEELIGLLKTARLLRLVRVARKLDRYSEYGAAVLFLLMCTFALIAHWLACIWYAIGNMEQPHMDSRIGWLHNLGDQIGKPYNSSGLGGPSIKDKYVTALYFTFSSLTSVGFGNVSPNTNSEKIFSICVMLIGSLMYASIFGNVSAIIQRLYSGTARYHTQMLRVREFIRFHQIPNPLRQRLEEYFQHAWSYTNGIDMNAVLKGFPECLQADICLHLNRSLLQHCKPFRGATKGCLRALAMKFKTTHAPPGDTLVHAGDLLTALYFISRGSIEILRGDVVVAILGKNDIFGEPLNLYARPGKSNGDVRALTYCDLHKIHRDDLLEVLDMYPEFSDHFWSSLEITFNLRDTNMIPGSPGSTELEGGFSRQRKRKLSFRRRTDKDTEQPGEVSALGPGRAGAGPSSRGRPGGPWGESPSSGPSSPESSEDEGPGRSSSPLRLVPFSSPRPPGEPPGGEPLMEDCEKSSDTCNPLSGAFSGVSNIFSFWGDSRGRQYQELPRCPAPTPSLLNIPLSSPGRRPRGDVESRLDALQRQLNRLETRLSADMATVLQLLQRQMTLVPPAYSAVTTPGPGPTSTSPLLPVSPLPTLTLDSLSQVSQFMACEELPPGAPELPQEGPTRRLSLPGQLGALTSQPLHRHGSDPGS

CC(=O)O[C@H]1C[C@@H]2CC[C@@H]3[C@H](CC[C@@]4(C)[C@H]3C[C@H]([N+]3(C)CCCCC3)[C@@H]4OC(C)=O)[C@@]2(C)C[C@@H]1N1CCCCC1.[Br-] [VECURONIUM BROMIDE]
Not Active: IC50 [1] | Ki [1] | IC50 [2] | IC50 [3] | IC50 (Glycine receptor) | IC50 [4] | IC50 [5] | Ki [5] | IC50 [6] | IC50 [7] | Ki [7]

COc1cc(C(=O)NS(=O)(=O)c2ccccc2C)ccc1Cc1cn(C)c2ccc(NC(=O)OC3CCCC3)cc12 [ZAFIRLUKAST]
Not Active: IC50 [1] | Ki [1] | IC50 [2] | IC50 [3] | IC50 (Glycine receptor) | IC50 [4] | IC50 [5] | Ki [5] | IC50 [6] | IC50 [7] | Ki [7]

Cc1cn([C@H]2C[C@H](N=[N+]=[N-])[C@@H](CO)O2)c(=O)[nH]c1=O [ZIDOVUDINE]
Not Active: IC50 [1] | Ki [1] | IC50 [2] | IC50 [3] | IC50 (Glycine receptor) | IC50 [4] | IC50 [5] | Ki [5] | IC50 [6] | IC50 [7] | Ki [7]
